Laboratory results: patent US8410045B2, “Camptothecin-peptide conjugates and pharmaceutical compositions containing the same” (Drais Pharmaceuticals, Inc., priority 2006, dated 2013)
“Also recorded” adds a separate entry of the source. Counter-ions that a name gives are not always drawn. Marks after values point to notes of the source that are not given here.

Legend:
[1] = In vitro cytotoxicity (WST-1 cell viability); type: cell-based, human; conditions: 1 h exposure + 48 h post-incubation; read-out: In vitro cytotoxicity IC50 (μM) NCI-H460
Experimental: Cytotoxic evaluation was performed by seeded cells for 24 h prior to the addition of the therapeutic compound. Cells were incubated for 48 h (37° C.) with different dilutions of the therapeutic compound. Cell viability was then assessed using the WST-1 assay (Roche). The results are expressed as mean cytotoxic concentrations (IC50 value or molar concentration that inhibits 50% of cell viability) that were estimated from sigmoid regression, using Graph Pad Prism 3.02 software.
NCI-H460 (ATCC#: HTB-177): human epithelial lung carcinoma cells. Cells were cultured in RPMI 1640+glutamax and 10% of fetal bovine serum. Cells were plated at a density of 10,000 cells/well in 96-well plates.

NCI-H460 lung carcinoma = experiment: Antitumor efficacy in NCI-H460 lung carcinoma model in nude mice; conditions: Table 9, 25 μmol/kg
[2] = Toxicity study in the beagle dog following intravenous infusion; conditions: dog, 30 mg/kg
Experimental: Adult female and male beagle dogs were individually housed with free access to tap water. A pellet diet was distributed daily.
Dogs (1 dog for each drug and dose) were infused intravenously through the cephalic or saphenous vein. These intravenous infusions were made using a single-use catheter (Intraflon®) and a plastic syringe connected to a syringe pump. During the injection, the animals were restrained in a hammock.
Conjugates were dissolved in water for injection (10% of final volume) and diluted with 0.9% NaCl to their final concentration. The volume administered to each animal was adjusted according to body weight.
Clinical signs, hematological and intestinal toxicities were monitored during a period of 15 days after infusion. Each animal was checked at least twice a day for mortality or signs of morbidity.
The body weight of each animal was recorded on the day −1, 4, 10 and 13.
Peripheral blood samples were taken into EDTA tubes for the determination of following parameters on days −1, 5, 11 and 14: erythrocytes, hemoglobin, mean cell volume, packed cell volume, mean cell hemoglobin concentration, mean cell hemoglobin, thrombocytes, leucocytes, differential white cell count with cell morphology.

[3] = test system: HCT 116 human colorectal carcinoma tumor
[4] = dog; F. Lavelle et al., Seminar in Oncology (1996); cited from earlier work
physchem = conditions: water
[5] = M. Horikawa, Pharmaceutical Res. 2002; cited from earlier work

SMILES | IC50 [1] [µM] | In vivo efficacy Optimal T/C % (NCI-H460 lung carcinoma) [%] | In vivo efficacy TGI % (NCI-H460 lung carcinoma) [%] | In vivo efficacy Optimal T/C % (NCI-H460 lung carcinoma; listed as DPV1047-BCH-SN38.HCl) [%] | body weight loss ([2]; 20 min infusion) [%] | white blood cells depletion ([2]; Day 5) [%] | Reduction in WBC at D5 (%) ([2]; i.v. infusion) | Toxic signs Day 1 ([2]; i.v. infusion) | Toxic signs Following Days ([2]; i.v. infusion) | TGI (100-T/C %) ([3]; Table 5, Q1D5, 18 (cumulative 90) μmol/kg) | Minimal T/C (%) ([3]; iv) | Maximal Tolerated Dose (MTD) [4] [mg/kg] | solubility (physchem) [µg/mL] | excreted into bile [5] [%]
CCc1c2c(nc3ccc(OC(=O)[C@H]4CC[C@H](CNC(=O)C5CCC(CN6C(=O)CC(SC[C@H](N)C(=O)N[C@H](C(=O)N[C@@H](CCCCN)C(=O)N[C@@H](CCCNC(=N)N)C(=O)NCC(=O)N[C@@H](CC(C)C)C(=O)N[C@@H](CCCCN)C(=O)N[C@@H](CC(C)C)C(=O)N[C@@H](CCCNC(=N)N)C(=O)N[C@@H](Cc7c[nH]cn7)C(=O)N[C@H](C(=O)N[C@@H](CCCNC(=N)N)C(=O)N7CCC[C@H]7C(=O)N[C@@H](CCCNC(=N)N)C(=O)N[C@H](C(=O)N[C@H](C(=O)N[C@@H](CCCNC(=N)N)C(=O)N[C@@H](CCSC)C(=O)N[C@@H](CC(=O)O)C(=O)N[C@H](C(=O)O)C(C)C)[C@@H](C)O)C(C)C)C(C)C)C(C)C)C6=O)CC5)CC4)cc13)-c1cc3c(c(=O)n1C2)COC(=O)[C@]3(O)CC (single isomer, unassigned) [DPV1047-BCH-SN38•HCl] | 173 | 22.9 | 77.1 | 18.4 | – | – | – | – | – | – | – | – | – | –
CCc1c2c(nc3ccc(OC(=O)N4CCC(N5CCCCC5)CC4)cc13)-c1cc3c(c(=O)n1C2)COC(=O)[C@]3(O)CC [irinotecan, reference compound] | – | – | – | – | −8.5 | 92 | −92 | Ptyalism; also recorded: Liquid feces; also recorded: Vomit; also recorded: Loss of balance; also recorded: Tremors (marked) | Vomit: D4 | 90*** % | 10 | 30 | ≤ 2500 | > 26
